Test results: patent publication US20230058171A1, “NEW ORAL PHARMACEUTICAL COMPOSITION FOR CANCER THERAPY” (BOEHRINGER INGELHEIM INTERNATIONAL GMBH, priority 2021, published 2023)

How the values were obtained:
[1] = test system: patients with advanced or metastatic solid tumors; test: Trial 1403-0001 Phase Ia dose escalation, Arm A (D1 q3w): adverse events; assay type: in vivo
Text: Trial 1403-0001 was a first in human Phase Ia/Ib, open label, multicenter, dose-escalation study of the MDM2-antagonist of formula I in patients with advanced or metastatic solid tumors. The Phase Ia dose escalation part aimed to define the Maximum Tolerated Dose (MTD) and the Recommended Dose for Expansion (RDE) for the MDM2-antagonist of formula I based on safety and tolerability, pharmacokinetics, pharmacodynamics, and preliminary efficacy. The RDE will be further explored in the Phase Ib expansion part of the trial.
Fifty-four patients had been treated with the MDM2-antagonist of formula I in the Phase Ia dose escalation part of clinical trial 1403-0001. Twenty-nine patients were treated in Arm A (dosing regimen: dosing on Day 1 of a 21 days-cycle, D1 q3w) and twenty-five patients were treated in Arm B (dosing regimen: dosing on Day 1 and on Day 8 of a 28 days-cycle, D1 D8 q4w). Dose levels evaluated in Arm A were 10, 20, 30, 45, 50, 60, and 80 mg. Dose levels evaluated in Arm B (referring to the dose administered on Day 1 and Day 8) were 5, 10, 15, 20, 30, 45, and 60 mg.
During the on-treatment period, all 29 patients were reported with adverse events (AEs). […] A total of 27 patients (93.1%) were reported with at least 1 AE judged to be related to the MDM2-antagonist of formula I by investigators.

tumors = test: Trial 1403-0002 combination with ezabenlimab (and anti-LAG3-1): tumor response; assay type: in vivo, human
SJSA-1 xenograft = test: Mouse SJSA-1 xenograft experiment: minimum effective AUC; assay type: in vivo; settings: QW
Experimental: Preliminary pharmacokinetic (PK) data were used as supportive information for the dose decision. The human therapeutic dose was predicted based on a minimum effective AUC0-168 of 30,700 nM*h (QW), which was determined in a mouse SJSA-1 xenograft experiment. For this, the difference in plasma protein binding between human and mouse was taken into account, which translated to an effective AUC0-168 of 11,350 nM*h for QW dosing in humans. The human therapeutic dose was predicted to be 64 mg (free acid) with QW dosing.

[2] = triple combination (11 treated)

Cc1c(C(=O)O)ccc2c3n(nc12)[C@@H]1[C@H](C3)N(CC2CC2)[C@@]2(C(=O)Nc3cc(Cl)ccc32)[C@H]1c1cccc(Cl)c1F [MDM2-antagonist of formula I, (2′S,3′S,3a'S,10a'S)-6-chloro-3′-(3-chloro-2-fluorophenyl)-1′-(cyclopropylmethyl)-6′-methyl-2-oxo-1,2,3′,3a′,10′,10a′-hexahydro-1′H-spiro[indole-3,2′-pyrrolo[2′,3′:4,5]pyrrolo[1,2-b]indazole]-7′-carboxylic acid]
Serious AEs: Results in Death, % ([1]; Arm A D1 q3w, 10 mg): 0%
Subjects with maximum CTC Grade 5, % ([1]; Arm A D1 q3w, 10 mg): 0%
Serious AEs: Results in Death, % ([1]; Arm A D1 q3w, 20 mg): 0%
Subjects with maximum CTC Grade 5, % ([1]; Arm A D1 q3w, 20 mg): 0%
Serious AEs: Results in Death, % ([1]; Arm A D1 q3w, 30 mg): 0%
Subjects with AEs leading to dose reduction of trial drug, % ([1]; Arm A D1 q3w, 30 mg): 33.3%
Subjects with maximum CTC Grade 2, % ([1]; Arm A D1 q3w, 30 mg): 33.3%
Subjects with maximum CTC Grade 3, % ([1]; Arm A D1 q3w, 30 mg): 66.7%
Subjects with maximum CTC Grade 5, % ([1]; Arm A D1 q3w, 30 mg): 0%
Patients with Dose limiting toxicity, % ([1]; Arm A D1 q3w, 45 mg): 33.3%
Serious AEs: Results in Death, % ([1]; Arm A D1 q3w, 45 mg): 0%
Subjects with AEs leading to dose reduction of trial drug, % ([1]; Arm A D1 q3w, 45 mg): 33.3%
Subjects with maximum CTC Grade 3, % ([1]; Arm A D1 q3w, 45 mg): 33.3%
Subjects with maximum CTC Grade 5, % ([1]; Arm A D1 q3w, 45 mg): 0%
Serious AEs: Results in Death, % ([1]; Arm A D1 q3w, 50 mg): 0%
Subjects with maximum CTC Grade 5, % ([1]; Arm A D1 q3w, 50 mg): 0%
Serious AEs: Results in Death, % ([1]; Arm A D1 q3w, 60 mg): 0%
Subjects with maximum CTC Grade 3, % ([1]; Arm A D1 q3w, 60 mg): 71.4%
Subjects with maximum CTC Grade 5, % ([1]; Arm A D1 q3w, 60 mg): 0%
Patients with Dose limiting toxicity, % ([1]; Arm A D1 q3w, 80 mg): 66.7%
Serious AEs: Requires or Prolongs Hospitalization, % ([1]; Arm A D1 q3w, 80 mg): 33.3%
Serious AEs: Results in Death, % ([1]; Arm A D1 q3w, 80 mg): 0%
Subjects with maximum CTC Grade 2, % ([1]; Arm A D1 q3w, 80 mg): 33.3%
Subjects with maximum CTC Grade 4, % ([1]; Arm A D1 q3w, 80 mg): 66.7%
Subjects with maximum CTC Grade 5, % ([1]; Arm A D1 q3w, 80 mg): 0%
Subjects with serious AEs, % ([1]; Arm A D1 q3w, 80 mg): 33.3%
Serious AEs: Requires or Prolongs Hospitalization, % ([1]; Arm A D1 q3w, Total): 31.0%
Serious AEs: Results in Death, % ([1]; Arm A D1 q3w, Total): 0%
Subjects with AEs leading to Discontinuation of trial drug, % ([1]; Arm A D1 q3w, Total): 6.9%
Subjects with maximum CTC Grade 5, % ([1]; Arm A D1 q3w, Total): 0%
drug-related AE diarrhea, patients ([1]; Arm A, all 29 patients): 27.6%
drug-related AE fatigue, patients ([1]; Arm A, all 29 patients): 41.1%
drug-related AE nausea, patients ([1]; Arm A, all 29 patients): 72.4%
drug-related AE platelet count decreased, patients ([1]; Arm A, all 29 patients): 37.9%
drug-related AE vomiting, patients ([1]; Arm A, all 29 patients): 41.1%
drug-related AE white blood cell count decreased, patients ([1]; Arm A, all 29 patients): 27.6%
fatal AEs ([1]; Arm A, all 29 patients): No fatal AEs were reported
patients with DLTs during the MTD evaluation period (cycle 1) ([1]; Arm A, all 29 patients): 17.2%
AE anemia, patients ([1]; human, in vivo): 41.4%
AE back pain, patients ([1]; human, in vivo): 20.7%
AE decreased appetite, patients ([1]; human, in vivo): 41.4%
AE diarrhea, patients ([1]; human, in vivo): 34.5%
AE fatigue, patients ([1]; human, in vivo): 51.7%
AE nausea, patients ([1]; human, in vivo): 82.8%
AE platelet count decreased, patients ([1]; human, in vivo): 37.9%
AE vomiting, patients ([1]; human, in vivo): 48.3%
AEs leading to Discontinuation: Other adverse event, % ([1]; human, in vivo): 3.4%
Grade 3 AE platelet count decreased, patients ([1]; human, in vivo): 13.8%
Grade 4 AE neutrophil count decreased, patients ([1]; human, in vivo): 10.3%
SAE platelet count decreased, patients ([1]; human, in vivo): 6.9%
Serious AEs: Cogenital Anomaly or Birth Defect, % ([1]; human, in vivo): 0%
Serious AEs: Is Life Threatening, % ([1]; human, in vivo): 0%
Serious AEs: Other Medically Important Serious Event, % ([1]; human, in vivo): 3.4%
Serious AEs: Persists of Signif. Disability/Incapacity, % ([1]; human, in vivo): 0%
Subjects with any AE, % ([1]; human, in vivo): 100%
Subjects with investigator defined drug-related AEs, % ([1]; human, in vivo): 93.1%
Subjects with maximum CTC Grade 1, % ([1]; human, in vivo): 3.4%
Subjects with maximum CTC Grade 2, % ([1]; human, in vivo): 27.6%
Subjects with maximum CTC Grade 3, % ([1]; human, in vivo): 51.7%
Subjects with maximum CTC Grade 4, % ([1]; human, in vivo): 17.2%
Subjects with serious AEs, % ([1]; human, in vivo): 31.0%
dose reduction due to enterocolitis, patients ([1]; human, in vivo): 3.4%
dose reduction due to nausea, patients ([1]; human, in vivo): 6.9%
dose reduction due to neutropenia and/or thrombocytopenia, patients ([1]; human, in vivo): 20.7%
drug-related AE anemia, patients ([1]; human, in vivo): 24.1%
drug-related AE decreased appetite, patients ([1]; human, in vivo): 34.5%
patients with confirmed partial response (PR) (tumors; double combination with 240 mg ezabenlimab D1 q3w, nine evaluable patients): four
patients with confirmed partial response (PR) (tumors; double combination, 30 mg + 240 mg ezabenlimab D1 q3w): one
patients with unconfirmed PR (tumors; double combination, 30 mg + 240 mg ezabenlimab D1 q3w, adenocarcinoma): one
patients with confirmed partial response (PR) (tumors; double combination, 45 mg + 240 mg ezabenlimab D1 q3w): three
patients with stable disease (tumors; double combination, nine evaluable patients): Four
Confirmed partial response, % of patients (tumors; [2]): (9.1) %
Confirmed partial response, number of patients (tumors; [2]): 1
Disease control, % of patients (tumors; [2]): (72.5) %
Disease control, number of patients (tumors; [2]): 8
Progressive disease, % of patients (tumors; [2]): (18.2) %
Progressive disease, number of patients (tumors; [2]): 2
Stable disease, number of patients (tumors; [2]): 7
Unconfirmed partial response, % of patients (tumors; [2]): (9.1) %
Unconfirmed partial response, number of patients (tumors; [2]): 1
Partial Responses (PRs), number (tumors; triple combination, MDM2-amplified liposarcoma and MDM2-amplified urothelial carcinoma patient): 2
minimum effective AUC0-168 (SJSA-1 xenograft): 30,700 nM*h
